Experimental data taken from PubChem BioAssay (NCI).
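96-well plates; 48 h exposure; 5 concentrations. Endpoints by linear interpolation between flanking doses. Not reached: highest tested concentration assigned. Definition used: TGI = concentration required for complete inhibition of growth.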

Experiments:
Assay in all cases: growth of human tumour cells (NCI), 48 h
[1] = system: A549 NSCLC
[2] = system: SK-MEL-28 melanoma
[3] = system: M14 melanoma
[4] = system: HOP-18 NSCLC
[5] = system: HT29 colon
[6] = system: M19-MEL melanoma
[7] = system: UACC-257 melanoma
[8] = system: ACHN renal
[9] = system: CCRF-CEM leukemia
[10] = system: OVCAR-8 ovarian
[11] = system: MALME-3M melanoma
[12] = system: SNB-75 CNS
[13] = system: SK-MEL-5 melanoma
[14] = system: SNB-19 CNS
[15] = system: KM12 colon
[16] = system: COLO 205 colon
[17] = system: SN12C renal
[18] = system: RXF 393 renal
[19] = system: EKVX NSCLC
[20] = system: HOP-62 NSCLC
[21] = system: CAKI-1 renal
[22] = system: DLD-1 colon
[23] = system: LOX IMVI melanoma
[24] = system: SW-620 colon
[25] = system: IGROV1 ovarian
[26] = system: RPMI-8226 leukemia
[27] = system: NCI-H522 lung
[28] = system: K-562 leukemia
[29] = system: NCI-H460 lung
[30] = system: TK-10 renal
[31] = system: XF 498 CNS
[32] = system: UACC-62 melanoma
[33] = system: A498 renal
[34] = system: NCI-H23 lung
[35] = system: HOP-92 NSCLC
[36] = system: SK-OV-3 ovarian
[37] = system: OVCAR-4 ovarian
[38] = system: DMS 114 small cell lung
[39] = system: HCT-116 colon
[40] = system: 786-0 renal
[41] = system: LXFL 529 NSCLC
[42] = system: OVCAR-5 ovarian
[43] = system: DMS 273 small cell lung
[44] = system: MOLT-4 leukemia
[45] = system: HCC-2998 colon
[46] = system: OVCAR-3 ovarian
[47] = system: UO-31 renal
[48] = system: SK-MEL-2 melanoma
[49] = system: U251 CNS
[50] = system: SR leukemia
[51] = system: SF-295 CNS
[52] = system: SF-268 CNS
[53] = system: NCI-H226 lung
[54] = system: SF-539 CNS
[55] = system: HL-60(TB) leukemia
[56] = system: KM20L2 colon
[57] = system: HCT-15 colon
[58] = system: DU-145 prostate
[59] = system: SNB-78 CNS

Measured: TGI

[N-]=[N+]=NC1C2CC3C4CC5CC3[C@H](C2)C(C5)C41 (some centres not stated)
not listed: [55] | [56] | [57] | [58] | [59]
> 100 µM: all other assays above

CCOP(=O)(OCC)/C(C#N)=C\c1ccc(OC(C)=O)cc1
not listed: [43]
> 100 µM: all other assays above
